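How tested: cells in 96-well plates exposed to compound for 48 hours at five concentrations. At the TGI there is no net growth.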
What was measured:
Experiment in all cases: NCI-60 cell line screen, 48 h
SNB-19 CNS = system: SNB-19 CNS
HCT-15 colon = system: HCT-15 colon
DLD-1 colon = system: DLD-1 colon
OVCAR-3 ovarian = system: OVCAR-3 ovarian
UACC-62 melanoma = system: UACC-62 melanoma
KM20L2 colon = system: KM20L2 colon
DMS 114 small cell lung = system: DMS 114 small cell lung
EKVX NSCLC = system: EKVX NSCLC
HL-60(TB) leukemia = system: HL-60(TB) leukemia
786-0 renal = system: 786-0 renal
NCI-H226 lung = system: NCI-H226 lung
OVCAR-8 ovarian = system: OVCAR-8 ovarian
CCRF-CEM leukemia = system: CCRF-CEM leukemia
SK-MEL-28 melanoma = system: SK-MEL-28 melanoma
U251 CNS = system: U251 CNS
MOLT-4 leukemia = system: MOLT-4 leukemia
NCI-H23 lung = system: NCI-H23 lung
HCT-116 colon = system: HCT-116 colon
HOP-92 NSCLC = system: HOP-92 NSCLC
OVCAR-4 ovarian = system: OVCAR-4 ovarian
TK-10 renal = system: TK-10 renal
IGROV1 ovarian = system: IGROV1 ovarian
SW-620 colon = system: SW-620 colon
NCI-H460 lung = system: NCI-H460 lung
A498 renal = system: A498 renal
HOP-18 NSCLC = system: HOP-18 NSCLC
XF 498 CNS = system: XF 498 CNS
COLO 205 colon = system: COLO 205 colon
M14 melanoma = system: M14 melanoma
RXF 393 renal = system: RXF 393 renal
KM12 colon = system: KM12 colon
RPMI-8226 leukemia = system: RPMI-8226 leukemia
K-562 leukemia = system: K-562 leukemia
SNB-75 CNS = system: SNB-75 CNS
SN12C renal = system: SN12C renal
SK-MEL-2 melanoma = system: SK-MEL-2 melanoma
OVCAR-5 ovarian = system: OVCAR-5 ovarian
HOP-62 NSCLC = system: HOP-62 NSCLC
A549 NSCLC = system: A549 NSCLC
SNB-78 CNS = system: SNB-78 CNS
RXF-631 renal = system: RXF-631 renal
SF-539 CNS = system: SF-539 CNS
UACC-257 melanoma = system: UACC-257 melanoma
MALME-3M melanoma = system: MALME-3M melanoma
M19-MEL melanoma = system: M19-MEL melanoma
HT29 colon = system: HT29 colon
DMS 273 small cell lung = system: DMS 273 small cell lung
SF-295 CNS = system: SF-295 CNS
SK-OV-3 ovarian = system: SK-OV-3 ovarian
ACHN renal = system: ACHN renal
SK-MEL-5 melanoma = system: SK-MEL-5 melanoma
LXFL 529 NSCLC = system: LXFL 529 NSCLC
HCC-2998 colon = system: HCC-2998 colon
SF-268 CNS = system: SF-268 CNS
CAKI-1 renal = system: CAKI-1 renal
NCI-H522 lung = system: NCI-H522 lung
LOX IMVI melanoma = system: LOX IMVI melanoma
UO-31 renal = system: UO-31 renal
SR leukemia = system: SR leukemia

Compound: CCOc1ccc(N=Cc2cccc3cccnc23)cc1
- TGI (SNB-19 CNS): > 100 µM
- TGI (HCT-15 colon): > 100 µM
- TGI (DLD-1 colon): > 100 µM
- TGI (OVCAR-3 ovarian): > 100 µM
- TGI (UACC-62 melanoma): > 100 µM
- TGI (KM20L2 colon): > 100 µM
- TGI (DMS 114 small cell lung): > 100 µM
- TGI (EKVX NSCLC): > 100 µM
- TGI (HL-60(TB) leukemia): 62.2 µM
- TGI (786-0 renal): > 100 µM
- TGI (NCI-H226 lung): > 100 µM
- TGI (OVCAR-8 ovarian): > 100 µM
- TGI (CCRF-CEM leukemia): > 100 µM
- TGI (SK-MEL-28 melanoma): > 100 µM
- TGI (U251 CNS): > 100 µM
- TGI (MOLT-4 leukemia): > 100 µM
- TGI (NCI-H23 lung): > 100 µM
- TGI (HCT-116 colon): > 100 µM
- TGI (HOP-92 NSCLC): > 100 µM
- TGI (OVCAR-4 ovarian): > 100 µM
- TGI (TK-10 renal): > 100 µM
- TGI (IGROV1 ovarian): > 100 µM
- TGI (SW-620 colon): > 100 µM
- TGI (NCI-H460 lung): > 100 µM
- TGI (A498 renal): > 100 µM
- TGI (HOP-18 NSCLC): > 100 µM
- TGI (XF 498 CNS): > 100 µM
- TGI (COLO 205 colon): > 100 µM
- TGI (M14 melanoma): > 100 µM
- TGI (RXF 393 renal): > 100 µM
- TGI (KM12 colon): > 100 µM
- TGI (RPMI-8226 leukemia): > 100 µM
- TGI (K-562 leukemia): 82.3 µM
- TGI (SNB-75 CNS): > 100 µM
- TGI (SN12C renal): > 100 µM
- TGI (SK-MEL-2 melanoma): > 100 µM
- TGI (OVCAR-5 ovarian): > 100 µM
- TGI (HOP-62 NSCLC): > 100 µM
- TGI (A549 NSCLC): > 100 µM
- TGI (SNB-78 CNS): > 100 µM
- TGI (RXF-631 renal): > 100 µM
- TGI (SF-539 CNS): > 100 µM
- TGI (UACC-257 melanoma): > 100 µM
- TGI (MALME-3M melanoma): > 100 µM
- TGI (M19-MEL melanoma): > 100 µM
- TGI (HT29 colon): > 100 µM
- TGI (DMS 273 small cell lung): > 100 µM
- TGI (SF-295 CNS): > 100 µM
- TGI (SK-OV-3 ovarian): > 100 µM
- TGI (ACHN renal): > 100 µM
- TGI (SK-MEL-5 melanoma): > 100 µM
- TGI (LXFL 529 NSCLC): > 100 µM
- TGI (HCC-2998 colon): > 100 µM
- TGI (SF-268 CNS): > 100 µM
- TGI (CAKI-1 renal): > 100 µM

Compound: Clc1ccc(Cl)c2[s+]snc12
- TGI (SNB-19 CNS): > 100 µM
- TGI (HCT-15 colon): > 65.5 µM
- TGI (NCI-H522 lung): 44 µM
- TGI (DLD-1 colon): > 100 µM
- TGI (LOX IMVI melanoma): > 100 µM
- TGI (OVCAR-3 ovarian): > 100 µM
- TGI (UACC-62 melanoma): > 100 µM
- TGI (KM20L2 colon): > 100 µM
- TGI (DMS 114 small cell lung): > 66.8 µM
- TGI (EKVX NSCLC): > 100 µM
- TGI (HL-60(TB) leukemia): > 100 µM
- TGI (786-0 renal): > 56.1 µM
- TGI (NCI-H226 lung): > 100 µM
- TGI (OVCAR-8 ovarian): > 100 µM
- TGI (CCRF-CEM leukemia): > 100 µM
- TGI (SK-MEL-28 melanoma): > 100 µM
- TGI (U251 CNS): > 100 µM
- TGI (MOLT-4 leukemia): > 100 µM
- TGI (NCI-H23 lung): > 100 µM
- TGI (HCT-116 colon): > 54.9 µM
- TGI (HOP-92 NSCLC): > 100 µM
- TGI (OVCAR-4 ovarian): > 100 µM
- TGI (TK-10 renal): > 100 µM
- TGI (IGROV1 ovarian): > 100 µM
- TGI (SW-620 colon): > 51.9 µM
- TGI (NCI-H460 lung): > 88.3 µM
- TGI (A498 renal): > 100 µM
- TGI (HOP-18 NSCLC): > 100 µM
- TGI (XF 498 CNS): > 100 µM
- TGI (COLO 205 colon): > 60.1 µM
- TGI (M14 melanoma): > 100 µM
- TGI (KM12 colon): > 100 µM
- TGI (RPMI-8226 leukemia): > 77.6 µM
- TGI (K-562 leukemia): > 67.9 µM
- TGI (SNB-75 CNS): > 100 µM
- TGI (UO-31 renal): > 100 µM
- TGI (SN12C renal): > 100 µM
- TGI (OVCAR-5 ovarian): > 100 µM
- TGI (HOP-62 NSCLC): > 100 µM
- TGI (A549 NSCLC): > 100 µM
- TGI (SNB-78 CNS): > 100 µM
- TGI (RXF-631 renal): > 100 µM
- TGI (SR leukemia): > 100 µM
- TGI (SF-539 CNS): > 100 µM
- TGI (UACC-257 melanoma): > 100 µM
- TGI (MALME-3M melanoma): 99.5 µM
- TGI (M19-MEL melanoma): > 100 µM
- TGI (HT29 colon): 68.3 µM
- TGI (DMS 273 small cell lung): > 62.7 µM
- TGI (SF-295 CNS): > 100 µM
- TGI (SK-OV-3 ovarian): > 100 µM
- TGI (ACHN renal): > 100 µM
- TGI (SK-MEL-5 melanoma): > 100 µM
- TGI (LXFL 529 NSCLC): > 100 µM
- TGI (HCC-2998 colon): > 100 µM
- TGI (SF-268 CNS): > 100 µM
- TGI (CAKI-1 renal): > 100 µM
